# Columns and labels:
# Experiment in all cases: Antimicrobial activity, serial dilution technique in Mueller–Hinton Broth 2
# [1] = test system: Escherichia coli ATCC 25922; format: cell-based; conditions: Escherichia coli, ATCC25922, Ec; average of three ± SD; - means non-active; read-out: Minimum Bactericidal and Fungicidal Concentration (MBC, MFC), Ec
# [2] = test system: Bacillus cereus ATCC 10702 NCTC 8035; format: cell-based; conditions: Bacillus cereus, Bc, average of three ± SD, - means non-active
# Summary of the method: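 Antibacterial activity against Bacillus cereus ATCC 10702 NCTC 8035 was measured by serial dilution in Mueller–Hinton Broth 2 at a bacterial load of 3.0 × 10^5 cfu/mL. Cultures were kept at 37 °C and growth was read every 24 h for 5 days. The experiment was done three times, and MIC and bactericidal concentrations were determined.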
# [3] = test system: Staphylococcus aureus ATCC 6538P FDA 209P; format: cell-based; conditions: Staphylococcus aureus, Sa, average of three ± SD, - means non-active
# Summary of the method: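 Antimicrobial activity against Staphylococcus aureus ATCC 6538P FDA 209P was measured by serial dilution in Mueller–Hinton Broth 2 at a bacterial load of 3.0 × 10^5 cfu/mL. Cultures were incubated at 37 °C, growth was recorded every 24 h for 5 days, and the experiment was done three times.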
# [4] = test system: Escherichia coli ATCC 25922; format: cell-based; conditions: Escherichia coli, ATCC25922, Ec; average of three ± SD; - means non-active; read-out: Minimum Inhibitory Concentration (MIC), Ec
# Summary of the method: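 Compounds were serially diluted in Mueller–Hinton Broth 2 and inoculated at 3.0 × 10^5 cfu/mL. Cultures were then incubated at 37 °C with growth recorded daily for 5 days. The MIC was taken as the minimum concentration inhibiting growth, from three experiments.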
# [5] = test system: Pseudomonas aeruginosa ATCC 9027; format: cell-based; conditions: Pseudomonas aeruginosa, ATCC9027, Pa, average of three ± SD, - means non-active
# [6] = test system: Enterococcus faecalis ATCC 2921; format: cell-based; conditions: Ef; average of three ± SD; - means non-active
# Summary of the method: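 Antibacterial activity against Enterococcus faecalis ATCC 2921 was assessed by serial dilution in Mueller–Hinton Broth 2 with a bacterial load of 3.0 × 10^5 cfu/mL. Cultures were incubated at 37 °C, with growth recorded every 24 h for 5 days, and the experiment was performed three times.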
# [7] = test system: methicillin-resistant S. aureus MRSA-1; format: cell-based, Staphylococcus aureus; conditions: - means non-active
# Summary of the method: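 Antimicrobial activity against methicillin-susceptible Staphylococcus aureus MRSA-1, a hospital isolate from a chronic tonsillitis patient that is resistant to fluoroquinolones and beta-lactams, was determined by serial dilution in Mueller–Hinton Broth 2. The bacterial load was 3.0 × 10^5 cfu/mL, incubation was at 37 °C, and growth was recorded every 24 h for 5 days.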
smiles,measurement,setting,value
"CCCCCCCCCCCC[P+](C(C)(C)C)(C(C)(C)C)C(C)(C)C [Compound 12a, tri-tert-butyl(n-dodecyl)phosphonium]",MBC,[1],7.8 ± 0.7 µg/mL
same,MBC,"[2]; read-out: Minimum Bactericidal and Fungicidal Concentration (MBC, MFC), Bc",62.5 ± 5.3 µg/mL
same,MIC,"[2]; read-out: Minimum Inhibitory Concentration (MIC), Bc",1.9 ± 0.01 µg/mL
same,MBC,"[3]; read-out: Minimum Bactericidal and Fungicidal Concentration (MBC, MFC), Sa",0.5 ± 0.03 µg/mL
same,MIC,"[3]; read-out: Minimum Inhibitory Concentration (MIC), Sa",0.5 ± 0.03 µg/mL
same,MIC,[4],7.8 ± 0.6 µg/mL
same,MBC,"[5]; read-out: Minimum Bactericidal and Fungicidal Concentration (MBC, MFC), Pa",125 ± 11 µg/mL
same,MIC,"[5]; read-out: Minimum Inhibitory Concentration (MIC), Pa",62.5 ± 5.5 µg/mL
same,"Minimum Bactericidal and Fungicidal Concentration (MBC, MFC), Ef",[6],1.9 ± 0.1 µg/mL
same,"Minimum Inhibitory Concentration (MIC), Ef",[6],0.9 ± 0.06 µg/mL
same,"Minimum Inhibitory Concentration (MIC), MRSA-1",[7]; MRSA-1 (resistant to fluoroquinolones and beta-lactams),0.5 ± 0.03 µg/mL
same,MBC,"[7]; Staphylococcus aureus, MRSA, MRSA-1, read-out: Minimum Bactericidal and Fungicidal Concentration (MBC, MFC), MRSA-1",0.5 ± 0.04 µg/mL

# Source: paper PMC8744835, “Sterically Hindered Quaternary Phosphonium Salts (QPSs): Antimicrobial Activity and Hemolytic and Cytotoxic Properties” (International Journal of Molecular Sciences, 2021)
